Experimental data reported in the NIST ThermoML archive (doi:10.1016/j.jct.2005.01.017).
± gives the expanded uncertainty stated by the source.

Test: xn = mol fraction of the nth substance listed
Settings: 101 kPa, Liquid

CC1COC(=O)O1 (configuration not stated) [4-methyl-1,3-dioxolan-2-one] + Cc1ccc(C)cc1
Settings | mass density [kg/m3]
293.15 K, x2 = 0 | 1200.25 ± 40
293.15 K, x2 = 0.0487 | 1177.59 ± 40
293.15 K, x2 = 0.1238 | 1144.26 ± 40
293.15 K, x2 = 0.1793 | 1120.81 ± 40
293.15 K, x2 = 0.2482 | 1093.01 ± 40
293.15 K, x2 = 0.3125 | 1068.33 ± 40
293.15 K, x2 = 0.381 | 1043.26 ± 40
293.15 K, x2 = 0.4371 | 1023.64 ± 40
293.15 K, x2 = 0.4972 | 1003.44 ± 40
293.15 K, x2 = 0.5622 | 982.49 ± 40
293.15 K, x2 = 0.6329 | 960.71 ± 40
293.15 K, x2 = 0.6938 | 942.7 ± 40
293.15 K, x2 = 0.7421 | 928.88 ± 40
293.15 K, x2 = 0.8023 | 912.2 ± 40
293.15 K, x2 = 0.8592 | 896.93 ± 40
293.15 K, x2 = 0.9247 | 879.91 ± 40
303.15 K, x2 = 0 | 1180.56 ± 40
303.15 K, x2 = 0.0523 | 1157.1 ± 40
303.15 K, x2 = 0.123 | 1126.84 ± 40
303.15 K, x2 = 0.1836 | 1102.14 ± 40
303.15 K, x2 = 0.2381 | 1080.85 ± 40
303.15 K, x2 = 0.3263 | 1048.15 ± 40
303.15 K, x2 = 0.3741 | 1031.29 ± 40
303.15 K, x2 = 0.4233 | 1014.5 ± 40
303.15 K, x2 = 0.4794 | 996.06 ± 40
303.15 K, x2 = 0.5573 | 971.57 ± 40
303.15 K, x2 = 0.6233 | 951.77 ± 40
303.15 K, x2 = 0.6843 | 934.2 ± 40
303.15 K, x2 = 0.7538 | 914.94 ± 40
303.15 K, x2 = 0.8148 | 898.66 ± 40
303.15 K, x2 = 0.8731 | 883.59 ± 40
303.15 K, x2 = 0.9362 | 867.79 ± 40
313.15 K, x2 = 0 | 1161.28 ± 40
313.15 K, x2 = 0.0543 | 1137.8 ± 40
313.15 K, x2 = 0.1173 | 1111.72 ± 40
313.15 K, x2 = 0.1598 | 1094.8 ± 40
313.15 K, x2 = 0.2294 | 1068.21 ± 40
313.15 K, x2 = 0.2849 | 1047.95 ± 40
313.15 K, x2 = 0.3598 | 1021.87 ± 40
313.15 K, x2 = 0.4381 | 996.03 ± 40
313.15 K, x2 = 0.482 | 982.14 ± 40
313.15 K, x2 = 0.5359 | 965.64 ± 40
313.15 K, x2 = 0.6021 | 946.14 ± 40
313.15 K, x2 = 0.6721 | 926.39 ± 40
313.15 K, x2 = 0.7359 | 909.11 ± 40
313.15 K, x2 = 0.8243 | 886.17 ± 40
313.15 K, x2 = 0.8817 | 871.85 ± 40
313.15 K, x2 = 0.9274 | 860.74 ± 40
323.15 K, x2 = 0 | 1142.43 ± 40
323.15 K, x2 = 0.0623 | 1116.49 ± 40
323.15 K, x2 = 0.1246 | 1091.71 ± 40
323.15 K, x2 = 0.1822 | 1069.79 ± 40
323.15 K, x2 = 0.2483 | 1045.74 ± 40
323.15 K, x2 = 0.3193 | 1021.16 ± 40
323.15 K, x2 = 0.3719 | 1003.72 ± 40
323.15 K, x2 = 0.4389 | 982.42 ± 40
323.15 K, x2 = 0.5032 | 962.87 ± 40
323.15 K, x2 = 0.5579 | 946.88 ± 40
323.15 K, x2 = 0.6234 | 928.45 ± 40
323.15 K, x2 = 0.6972 | 908.56 ± 40
323.15 K, x2 = 0.7529 | 894.11 ± 40
323.15 K, x2 = 0.8137 | 878.84 ± 40
323.15 K, x2 = 0.8724 | 864.57 ± 40
323.15 K, x2 = 0.9378 | 849.15 ± 40
333.15 K, x2 = 0 | 1123.99 ± 40
333.15 K, x2 = 0.0598 | 1099.91 ± 40
333.15 K, x2 = 0.1387 | 1069.71 ± 40
333.15 K, x2 = 0.1738 | 1056.82 ± 40
333.15 K, x2 = 0.2384 | 1033.93 ± 40
333.15 K, x2 = 0.3283 | 1003.8 ± 40
333.15 K, x2 = 0.3918 | 983.64 ± 40
333.15 K, x2 = 0.452 | 965.32 ± 40
333.15 K, x2 = 0.5138 | 947.26 ± 40
333.15 K, x2 = 0.5821 | 928.14 ± 40
333.15 K, x2 = 0.6518 | 909.44 ± 40
333.15 K, x2 = 0.7139 | 893.44 ± 40
333.15 K, x2 = 0.783 | 876.29 ± 40
333.15 K, x2 = 0.8346 | 863.9 ± 40
333.15 K, x2 = 0.8814 | 852.95 ± 40
333.15 K, x2 = 0.9471 | 837.99 ± 40
343.15 K, x2 = 0 | 1105.98 ± 40
343.15 K, x2 = 0.0643 | 1081 ± 40
343.15 K, x2 = 0.1241 | 1058.78 ± 40
343.15 K, x2 = 0.1839 | 1037.51 ± 40
343.15 K, x2 = 0.245 | 1016.69 ± 40
343.15 K, x2 = 0.3183 | 992.89 ± 40
343.15 K, x2 = 0.3891 | 971.03 ± 40
343.15 K, x2 = 0.4498 | 953.11 ± 40
343.15 K, x2 = 0.5021 | 938.24 ± 40
343.15 K, x2 = 0.5721 | 919.11 ± 40
343.15 K, x2 = 0.6592 | 896.46 ± 40
343.15 K, x2 = 0.7134 | 882.94 ± 40
343.15 K, x2 = 0.7635 | 870.82 ± 40
343.15 K, x2 = 0.8247 | 856.45 ± 40
343.15 K, x2 = 0.8848 | 842.78 ± 40
343.15 K, x2 = 0.9522 | 827.92 ± 40
353.15 K, x2 = 0 | 1088.38 ± 40
353.15 K, x2 = 0.0505 | 1069.32 ± 40
353.15 K, x2 = 0.1184 | 1044.77 ± 40
353.15 K, x2 = 0.1739 | 1025.56 ± 40
353.15 K, x2 = 0.2289 | 1007.26 ± 40
353.15 K, x2 = 0.2847 | 989.41 ± 40
353.15 K, x2 = 0.3571 | 967.26 ± 40
353.15 K, x2 = 0.4248 | 947.53 ± 40
353.15 K, x2 = 0.4972 | 927.39 ± 40
353.15 K, x2 = 0.5539 | 912.26 ± 40
353.15 K, x2 = 0.6198 | 895.34 ± 40
353.15 K, x2 = 0.674 | 881.93 ± 40
353.15 K, x2 = 0.7354 | 867.23 ± 40
353.15 K, x2 = 0.7842 | 855.91 ± 40
353.15 K, x2 = 0.8527 | 840.5 ± 40
353.15 K, x2 = 0.9247 | 824.87 ± 40
